From US11701434B2, “Tertiary amino lipidated cationic peptides for nucleic acid delivery” (Nutcracker Therapeutics, Inc., priority 2018, dated 2023)

Tests used:
[1] = mRNA encapsulation by Qubit RNA HS dye fluorescence before and after Triton X-100 lysis; format: physicochemical; conditions: Fluc mRNA/peptoid formulation, 5:1 mass ratio peptoid:cargo
Method: (§1) In standard formulations, the tertiary amino lipidated and/or PEGylated cationic peptide compound is dissolved in anhydrous ethanol at a concentration of 0.5 mg/mL (for in vitro experiments) or 5 mg/mL (for in vivo experiments). The resulting solutions are stable at room temperature, but should be stored at −20° C. The nucleic acid cargo is dissolved in DNAse or RNAse-free water at a final concentration of 0.2 mg/mL (for in vitro experiments) or 1 mg/mL (for in vivo experiments). These solutions should be stored at −20° C. or at −78° C. for longer time periods. To prepare nanoparticle formulations, the tertiary amino lipidated and/or PEGylated cationic peptide compound is mixed by pipetting with nucleic acid at a mass ratio between approximately 1:1 (peptide compound:cargo) and 20:1. Prior to formulation, tertiary amino lipidated and/or PEGylated cationic peptide compounds and cargo (such as nucleic acid) are diluted in ethanol and acidic buffer (PBS adjusted to pH 5.5 with 0.1 M HCl) respectively to a volume ratio of 1:3 and to target a final cargo concentration of approximately 0.05 mg/mL to 0.2 mg/mL. The exemplary amino lipidated cationic peptoids 1-36 described in Example 2 were combined with firefly luciferase (Flue) mRNA to form nanoparticle compositions to be evaluated for therapeutic and/or prophylactic purposes in vitro or in vivo. The formulations were prepared according to the protocol of Example 3 and mixed by simple pipetting. The mRNA/peptoid formulation at a 5:1 mass ratio of peptoid:cargo were evaluated by dynamic light scattering (DLS) in order to determine the volume average particle size/diameter (nm) of the mRNA/peptoid complex and the size polydispersity index (PDI) within the formulation. The percentage of mRNA encapsulation for each formulation of the exemplary compounds were determined by fluorescence of the Qubit RNA HS (Invitrogen) dye before and after lysis of particles by Triton X-100.

[2] = Dynamic light scattering (DLS) of Fluc mRNA/peptoid formulations: particle size and polydispersity; format: physicochemical; conditions: 5:1 mass ratio peptoid:cargo; for Size (volume average particle size/diameter): Fluc mRNA/peptoid complex; for Size PDI (size polydispersity index): Fluc mRNA/peptoid formulation
Method: as §1

SMILES	% Encapsulation (percentage of mRNA encapsulation) [1] [%]	Size (volume average particle size/diameter) [2] [nm]	Size PDI (size polydispersity index) [2]
CCCCCCCCCCN(CC(N)=O)C(=O)CN(CCCCCCCCCC)C(=O)CN(CCc1ccccc1)C(=O)CN(CCc1ccccc1)C(=O)CN(CCN)C(=O)CN(CCc1ccccc1)C(=O)CN(CCc1ccccc1)C(=O)CN(CCN)C(=O)CN(CCc1ccccc1)C(=O)CN(CCc1ccccc1)C(=O)CN(CCN)C(=O)CN(CCc1ccccc1)C(=O)CN(CCc1ccccc1)C(=O)CNCCN [Compound 11]	87.8	354.9	0.038
CCCCCCCCCCN(CC(N)=O)C(=O)CN(CCCCCCCCCC)C(=O)CN(CCc1ccccc1)C(=O)CN(CCc1ccccc1)C(=O)CNCCN [Compound 9]	73.9	367.9	0.122
CCCCCCCCCCN(CC(N)=O)C(=O)CN(CCCCCCCCCC)C(=O)CN(CCCCCCCCCC)C(=O)CN(CCCCCCCCCC)C(=O)CN(CCCCCCCCCC)C(=O)CN(CCc1ccccc1)C(=O)CN(CCc1ccccc1)C(=O)CN(CCN)C(=O)CN(CCc1ccccc1)C(=O)CN(CCc1ccccc1)C(=O)CNCCN [Compound 20]	72.2	326.6	0.37
CCCCCCCCCCN(CC(N)=O)C(=O)CN(CCCCCCCCCC)C(=O)CN(CCc1ccccc1)C(=O)CN(CCc1ccccc1)C(=O)CN(CC1CCNCC1)C(=O)CN(CCc1ccccc1)C(=O)CN(CCc1ccccc1)C(=O)CN(CC1CCNCC1)C(=O)CN(CCc1ccccc1)C(=O)CN(CCc1ccccc1)C(=O)CNCC1CCNCC1 [Compound 33]	82.0	435.7	0.048
CCCCCCCCCCN(CC(N)=O)C(=O)CN(CCCCCCCCCC)C(=O)CN(CCN)C(=O)CN(CCN)C(=O)CN(CCN)C(=O)CN(CCN)C(=O)CNCCN [Compound 15]	76.9	1064	1
CCCCCCCCCCNCC(=O)N(CCN)CC(=O)N(CCc1ccccc1)CC(=O)N(CCc1ccccc1)CC(=O)N(CCN)CC(=O)N(CCc1ccccc1)CC(=O)N(CCc1ccccc1)CC(=O)N(CCN)CC(=O)N(CCc1ccccc1)CC(=O)N(CCc1ccccc1)CC(=O)N(CCCCCCCCCC)CC(N)=O [Compound 18]	88.5	593	0.762
CCCCCCCCCCN(CC(N)=O)C(=O)CN(CCCCCCCCCC)C(=O)CN(CCc1ccccc1)C(=O)CN(CCc1ccccc1)C(=O)CN(CCCN)C(=O)CN(CCc1ccccc1)C(=O)CN(CCc1ccccc1)C(=O)CN(CCCN)C(=O)CN(CCc1ccccc1)C(=O)CN(CCc1ccccc1)C(=O)CNCCCN [Compound 30]	8.4	282.8	0.455
CCCCCCCCCCN(CC(N)=O)C(=O)CN(CCCCCCCCCC)C(=O)CN(CCN)C(=O)CN(CCN)C(=O)CNCCN [Compound 14]	77.3	554	0.233
CCCCCCCCCCN(CC(N)=O)C(=O)CN(CCCCCCCCCC)C(=O)CN(CCN)C(=O)CN(CCN)C(=O)CN(CCN)C(=O)CN(CCN)C(=O)CN(CCN)C(=O)CN(CCN)C(=O)CN(CCN)C(=O)CN(CCN)C(=O)CNCCN [Compound 16]	85.4	1486	1
